The text below walks through data of patent US9345704B2, “Materials and methods for suppressing and/or treating neurofibroma and related tumors” (Indiana University Research and Technology Corp., priority 2008, dated 2016).

Counter-ions that a name gives are not always drawn.

In the data set the test system is trigeminal plexiform neurofibroma. The experiment in a line: Compassionate use treatment with imatinib mesylate of a child presenting with a plexiform neurofibroma (MRI). The data set is classed as in vivo, human. An excerpt: Plexiform neurofibromas primarily present in infants and young children with NF1 are frequently characterized by rapid growth and invasion into adjacent organs often resulting in impairment of normal organ function. In addition, these tumors have a high likelihood of progressing to malignancy for which there is no cure.

Take `Cc1ccc(NC(=O)c2ccc(CN3CCN(C)CC3)cc2)cc1Nc1nccc(-c2cccnc2)n1` [imatinib mesylate, 4-(4-methylpiperazin-1-ylmethyl)-N-[4-methyl-3-(4-(pyridin-3-yl)pyrimidin-2-ylamino)phenyl]-benzamide]: the side effects result (NF1 patient, 350 mg/m2/dose, treatment for six months) is “no observed side effects”. Also, the “tumor size (coronal MRI)” value (before vs 6 months following treatment) was “profound decrease in tumor size”. Moreover, for the setting “before vs after 6 months of treatment”, the “upper airway (axial MRI)” value is recorded as “marked improvement with airway enlargement”. The “recurrence of symptoms off treatment” value (off treatment for six months after six months of treatment) is recorded as “without a recurrence of symptoms”.
